{
  "source": "patent US9308182B2",
  "about": "(TEVA PHARMACEUTICAL INDUSTRIES, LTD., priority 2012, dated 2016)",
  "origin": "cited, not measured here",
  "key": {"[1]": {"conditions": "cited from earlier work"}, "[2]": {"tested_on": "MAO", "conditions": "metabolite of rasagiline; cited from earlier work"}},
  "note": "Like-named read-outs stand apart in the source and are kept apart here.",
  "data": [
    {"smiles": "NCCc1ccc(O)cc1", "note": "[Tyramine, tyramine]", "values": [
      {"measurement": "increase in blood pressure", "setting": "[1]; 1 mg injected into the portal vein", "result": 18, "unit": "mmHg"},
      {"measurement": "increase in blood pressure", "setting": "[1]; 1 mg injected systematically", "result": 59, "unit": "mmHg"}
    ]},
    {"smiles": "NC1CCc2ccccc21", "note": "(stereo not drawn) [aminoindan]", "values": [
      {"measurement": "MAO inhibition", "setting": "[2]", "result": "does not inhibit MAO"}
    ]}
  ]
}
